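Cultured in 96-well plates, cells were exposed to test compound for 48 hours across five concentrations. GI50: concentration for 50% inhibition of growth.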 The source made the active and inactive calls. Rule as the data show it: active = GI50 up to about 1.1 µM and inactive = higher.
Legend:
Test in all cases: NCI anticancer screen, dose series, 48 h
UACC-257 = system: UACC-257
UO-31 = system: UO-31
ACHN = system: ACHN
HCT-116 = system: HCT-116
UACC-62 = system: UACC-62
IGROV-1 = system: IGROV-1
RXF 393 = system: RXF 393
BT-549 = system: BT-549
SF-295 = system: SF-295
786-0 = system: 786-0
K562 = system: K562
T47D = system: T47D
NCI/ADR-RES = system: NCI/ADR-RES
MDA-MB-435 = system: MDA-MB-435
MCF7 = system: MCF7
HCC 2998 = system: HCC 2998
SNB-75 = system: SNB-75
SF-539 = system: SF-539
HOP-62 = system: HOP-62
OVCAR-5 = system: OVCAR-5
KM12 = system: KM12
MOLT-4 = system: MOLT-4
A498 = system: A498
Malme-3M = system: Malme-3M
SK-MEL-28 = system: SK-MEL-28
NCI-H226 = system: NCI-H226
HT-29 = system: HT-29
NCI-H23 = system: NCI-H23
EKVX = system: EKVX
HL-60 = system: HL-60
SW-620 = system: SW-620
TK-10 = system: TK-10
LOX IMVI = system: LOX IMVI
Hs-578T = system: Hs-578T
RPMI-8226 = system: RPMI-8226
CAKI-1 = system: CAKI-1
NCI-H460 = system: NCI-H460
NCI-H522 = system: NCI-H522
M14 = system: M14
SN12C = system: SN12C
SR = system: SR
OVCAR-3 = system: OVCAR-3
SK-OV-3 = system: SK-OV-3
HOP-92 = system: HOP-92
U-251 = system: U-251
COLO 205 = system: COLO 205
PC-3 = system: PC-3
MDA-N = system: MDA-N
SNB-19 = system: SNB-19
SK-MEL-2 = system: SK-MEL-2
SK-MEL-5 = system: SK-MEL-5
DU-145 = system: DU-145
CCRF-CEM = system: CCRF-CEM
OVCAR-4 = system: OVCAR-4
OVCAR-8 = system: OVCAR-8
MDA-MB-231 = system: MDA-MB-231
SF-268 = system: SF-268
HCT-15 = system: HCT-15
A549 = system: A549

In the case of `O=[N+]([O-])C(=C(\Cl)NCCO)/C(Cl)=C(/Cl)Br`, the GI50 (UACC-257) is reported as 1.87 µM (inactive), the GI50 (UO-31) is reported as 2.79 µM (inactive) and the GI50 (ACHN) is reported as 2.75 µM (inactive). For the same compound, the GI50 (HCT-116) was 1.61 µM (inactive), the GI50 (UACC-62) was 1.75 µM (inactive) and the GI50 (IGROV-1) was 2.77 µM (inactive). For the same compound, the GI50 (RXF 393) was 2.6 µM (inactive), the GI50 (BT-549) was 1.77 µM (inactive) and the GI50 (SF-295) was 12.1 µM (inactive). The GI50 (786-0) was 1.19 µM (inactive), the GI50 (K562) was 665 nM (active) and the GI50 (T47D) was 1.74 µM (inactive). For the same compound, the GI50 (NCI/ADR-RES) was 2.34 µM (inactive), the GI50 (MDA-MB-435) was 1.3 µM (inactive) and the GI50 (MCF7) was 716 nM (active). The GI50 (HCC 2998) was 3.33 µM (inactive), the GI50 (SNB-75) was 3.37 µM (inactive) and the GI50 (SF-539) was 2.34 µM (inactive). The GI50 (HOP-62) was 10.8 µM (inactive), the GI50 (OVCAR-5) was 4 µM (inactive) and the GI50 (KM12) was 5.57 µM (inactive). For the same compound, the GI50 (MOLT-4) was 481 nM (active), the GI50 (A498) was 4.66 µM (inactive) and the GI50 (Malme-3M) was 1.62 µM (inactive). The GI50 (SK-MEL-28) was 2.1 µM (inactive), the GI50 (NCI-H226) was 6.73 µM (inactive) and the GI50 (HT-29) was 1.83 µM (inactive). The GI50 (NCI-H23) was 2.9 µM (inactive), the GI50 (EKVX) was 4.85 µM (inactive) and the GI50 (HL-60) was 791 nM (active). The GI50 (SW-620) was 1.17 µM (inactive), the GI50 (TK-10) was 2.16 µM (inactive) and the GI50 (LOX IMVI) was 885 nM (active). The GI50 (Hs-578T) was 6 µM (inactive), the GI50 (RPMI-8226) was 1.48 µM (inactive) and the GI50 (CAKI-1) was 558 nM (active). For the same compound, the GI50 (NCI-H460) was 2.7 µM (inactive), the GI50 (NCI-H522) was 1.1 µM (active) and the GI50 (M14) was 1.57 µM (inactive). The GI50 (SN12C) was 1.98 µM (inactive), the GI50 (SR) was 1.11 µM (active) and the GI50 (OVCAR-3) was 1.32 µM (inactive). For the same compound, the GI50 (SK-OV-3) was 15 µM (inactive), the GI50 (HOP-92) was 1.56 µM (inactive) and the GI50 (U-251) was 2.04 µM (inactive). The GI50 (COLO 205) was 1.38 µM (inactive), the GI50 (PC-3) was 2.62 µM (inactive) and the GI50 (MDA-N) was 1.83 µM (inactive). For the same compound, the GI50 (SNB-19) was 6.7 µM (inactive), the GI50 (SK-MEL-2) was 1.03 µM (active) and the GI50 (SK-MEL-5) was 2.44 µM (inactive). The GI50 (DU-145) was 7.74 µM (inactive), the GI50 (CCRF-CEM) was 323 nM (active) and the GI50 (OVCAR-4) was 716 nM (active). The GI50 (OVCAR-8) was 1.87 µM (inactive), the GI50 (MDA-MB-231) was 1.74 µM (inactive) and the GI50 (SF-268) was 1.62 µM (inactive). For the same compound, the GI50 (HCT-15) was 1320 nM and the GI50 (A549) was 7.91 µM (inactive).
With `CC(=O)OCCOCCN1CCN(C2=C(Cl)C(=O)c3c(O)ccc(O)c3C2=O)CC1` the GI50 (UACC-257) was 1.02 µM (active), the GI50 (UO-31) was 1.22 µM (inactive) and the GI50 (ACHN) was 0.286 µM (active). For the same compound, the GI50 (HCT-116) was 0.305 µM (active), the GI50 (UACC-62) was 1.38 µM (inactive) and the GI50 (IGROV-1) was 1.55 µM (inactive). The GI50 (RXF 393) was 0.69 µM (active), the GI50 (BT-549) was 0.776 µM (active) and the GI50 (SF-295) was 1.93 µM (inactive). The GI50 (786-0) was 0.326 µM (active), the GI50 (K562) was 264 nM (active) and the GI50 (T47D) was 0.652 µM (active). For the same compound, the GI50 (NCI/ADR-RES) was 0.296 µM (active), the GI50 (MDA-MB-435) was 0.71 µM (active) and the GI50 (MCF7) was 302 nM (active). For the same compound, the GI50 (HCC 2998) was 2.37 µM (inactive), the GI50 (SNB-75) was 2.06 µM (inactive) and the GI50 (SF-539) was 1.71 µM (inactive). For the same compound, the GI50 (HOP-62) was 3.04 µM (inactive), the GI50 (OVCAR-5) was 1.59 µM (inactive) and the GI50 (KM12) was 2.15 µM (inactive). For the same compound, the GI50 (MOLT-4) was 165 nM (active), the GI50 (A498) was 1.86 µM (inactive) and the GI50 (Malme-3M) was 0.318 µM (active). The GI50 (SK-MEL-28) was 1.04 µM (active), the GI50 (NCI-H226) was 2.89 µM (inactive) and the GI50 (HT-29) was 0.796 µM (active). The GI50 (NCI-H23) was 0.684 µM (active), the GI50 (EKVX) was 1.67 µM (inactive) and the GI50 (HL-60) was 39.4 nM (active). The GI50 (SW-620) was 0.179 µM (active), the GI50 (TK-10) was 0.46 µM (active) and the GI50 (LOX IMVI) was 423 nM (active). For the same compound, the GI50 (Hs-578T) was 3.1 µM (inactive), the GI50 (RPMI-8226) was 0.249 µM (active) and the GI50 (CAKI-1) was 339 nM (active). The GI50 (NCI-H460) was 4.9 µM (inactive), the GI50 (NCI-H522) was 0.265 µM (active) and the GI50 (M14) was 0.458 µM (active). The GI50 (SN12C) was 0.767 µM (active), the GI50 (SR) was 0.0444 µM (active) and the GI50 (OVCAR-3) was 0.723 µM (active). For the same compound, the GI50 (SK-OV-3) was 3.66 µM (inactive), the GI50 (HOP-92) was 0.294 µM (active) and the GI50 (U-251) was 2.13 µM (inactive). For the same compound, the GI50 (COLO 205) was 0.231 µM (active), the GI50 (PC-3) was 1.51 µM (inactive) and the GI50 (MDA-N) was 0.497 µM (active). The GI50 (SNB-19) was 3.04 µM (inactive), the GI50 (SK-MEL-2) was 1.63 µM (inactive) and the GI50 (SK-MEL-5) was 1.54 µM (inactive). For the same compound, the GI50 (DU-145) was 1.88 µM (inactive), the GI50 (CCRF-CEM) was 66.2 nM (active) and the GI50 (OVCAR-4) was 627 nM (active). For the same compound, the GI50 (OVCAR-8) was 0.685 µM (active), the GI50 (MDA-MB-231) was 0.397 µM (active) and the GI50 (SF-268) was 1.86 µM (inactive). The GI50 (HCT-15) was 365 nM and the GI50 (A549) was 2.1 µM (inactive).
